Structures can show the parent of a compound that is named as a salt.
These molecules were tested on HIV-1 NL4-3 strain (assay: Evaluation of antiviral activity: acute infection system of MT-4 cell with HIV-1 NL4-3 strain). Conditions: Human immunodeficiency virus 1, NL43, MT4, 120 h, MT-4 cells infected with HIV-1 NL4-3 strain (MOI 0.05), cultured 5 days, Cell Titer-Glo; read-out: antiviral activity (EC50).
Format: cell-based
`CC(C)N1C[C@]2(C[C@H](CO)C2)n2cc(C(=O)NCc3ccc(F)cc3F)c(=O)c(O)c2C1=O` [Example S22, N-(2,4-difluorobenzyl)-9′-hydroxy-cis-3-(hydroxymethyl)-2′-isopropyl-1′,8′-dioxo-1′,2′,3′,8′-tetrahydrospiro[cyclobutane-1,4′-pyrido[1,2-a]pyrazine]-7′-carboxamide hydrobromide] gave an EC50 of 5 nM.
Molecule `COC[C@H]1C[C@]2(CN(C(C)C)C(=O)c3c(O)c(=O)c(C(=O)NCc4ccc(F)cc4F)cn32)C1` [Example S23, N-(2,4-difluorobenzyl)-9′-hydroxy-2′-isopropyl-cis-3-(methoxymethyl)-1′,8′-dioxo-1′,2′,3′,8′-tetrahydrospiro[cyclobutane-1,4′-pyrido[1,2-a]pyrazine]-7′-carboxamide hydrochloride] has an EC50 of 6.3 nM.
Work on `CC(C)N1C[C@]2(C[C@@H](CO)C2)n2cc(C(=O)NCc3ccc(F)cc3F)c(=O)c(O)c2C1=O` [Example S24, N-(2,4-difluorobenzyl)-9′-hydroxy-trans-3-(hydroxymethyl)-2′-isopropyl-1′,8′-dioxo-1′,2′,3′,8′-tetrahydrospiro[cyclobutane-1,4′-pyrido[1,2-a]pyrazine]-7′-carboxamide hydrobromide] yielded an EC50 of 16 nM.
With `COC[C@H]1C[C@@]2(CN(C(C)C)C(=O)c3c(O)c(=O)c(C(=O)NCc4ccc(F)cc4F)cn32)C1` [Example S25, N-(2,4-difluorobenzyl)-9′-hydroxy-2′-isopropyl-trans-3-(methoxymethyl)-1′,8′-dioxo-1′,2′,3′,8′-tetrahydrospiro[cyclobutane-1,4′-pyrido[1,2-a]pyrazine]-7′-carboxamide hydrochloride] the EC50 was 7 nM.
For `CN1C[C@]2(C[C@@H](O)C2)n2cc(C(=O)NCc3cccc(Cl)c3F)c(=O)c(O)c2C1=O` [Example S26, N-(3-chloro-2-fluorobenzyl)- trans-3,9′-dihydroxy-2′-methyl-1′,8′-dioxo-1′,2′,3′,8′-tetrahydrospiro[cyclobutane-1,4′-pyrido[1,2-a]pyrazine]-7′-carboxamide hydrochloride], the EC50 was 3.4 nM.
In the case of `CN1C[C@]2(C[C@H](O)C2)n2cc(C(=O)NCc3cccc(Cl)c3F)c(=O)c(O)c2C1=O` [Example S27, N-(3-chloro-2-fluorobenzyl)- cis-3,9′-dihydroxy-2′-methyl-1′,8′-dioxo-1′,2′,3′,8′-tetrahydrospiro[cyclobutane-1,4′-pyrido[1,2-a]pyrazine]-7′-carboxamide hydrochloride], the EC50 is reported as 14 nM.
`CCO[C@H]1C[C@@]2(CN(C)C(=O)c3c(O)c(=O)c(C(=O)NCc4cccc(Cl)c4F)cn32)C1` [Example S28, N-(3-chloro-2-fluorobenzyl)- trans-3-ethoxy-9′-hydroxy-2′-methyl-1′,8′-dioxo-1′,2′,3′,8′-tetrahydrospiro[cyclobutane-1,4′-pyrido[1,2-a]pyrazine]-7′-carboxamide hydrochloride] showed an EC50 of 3.6 nM.
Molecule `CCO[C@H]1C[C@]2(CN(C)C(=O)c3c(O)c(=O)c(C(=O)NCc4cccc(Cl)c4F)cn32)C1` [Example S29, N-(3-chloro-2-fluorobenzyl)- cis-3-ethoxy-9′-hydroxy-2′-methyl-1′,8′-dioxo-1′,2′,3′,8′-tetrahydrospiro[cyclobutane-1,4′-pyrido[1,2-a]pyrazine]-7′-carboxamide hydrochloride] has an EC50 of 4.3 nM.
For `CNC(=O)[C@H]1C[C@]2(CN(C(C)C)C(=O)c3c(O)c(=O)c(C(=O)NCc4ccc(F)cc4F)cn32)C1` [Example S30, N^7′-(2,4-difluorobenzyl)-9′-hydroxy-2′-isopropyl-N^3-methyl-1′,8′-dioxo-1′,2′,3′,8′-tetrahydrospiro[cyclobutane-1,4′-pyrido[1,2-a]pyrazine]- cis-3,7′-dicarboxamide hydrochloride], the EC50 was 170 nM.
Molecule `CC(C)N1C[C@]2(C[C@H](C(=O)N(C)C)C2)n2cc(C(=O)NCc3ccc(F)cc3F)c(=O)c(O)c2C1=O` [Example S31, N^7′-(2,4-difluorobenzyl)-9′-hydroxy-2′-isopropyl-N^3-N^3-dimethyl-1′,8′-dioxo-1′,2′,3′,8′-tetrahydrospiro[cyclobutane-1,4′-pyrido[1,2-a]pyrazine]- cis-3,7′-dicarboxamide hydrochloride] has an EC50 of 24 nM.
For `CC(C)O[C@H]1C[C@@]2(CN(C(C)C)C(=O)c3c(O)c(=O)c(C(=O)NCc4ccc(F)cc4F)cn32)C1` [Example S32, N-(2,4-difluorobenzyl)-9′-hydroxy-trans-3-isopropoxy-2′-isopropyl-1′,8′-dioxo-1′,2′,3′,8′-tetrahydrospiro[cyclobutane-1,4′-pyrido[1,2-a]pyrazine]-7′-carboxamide hydrochloride], the EC50 was 6.6 nM.
Molecule `CC(C)O[C@H]1C[C@]2(CN(C(C)C)C(=O)c3c(O)c(=O)c(C(=O)NCc4ccc(F)cc4F)cn32)C1` [Example S33, N-(2,4-difluorobenzyl)-9′-hydroxy-cis-3-isopropoxy-2′-isopropyl-1′,8′-dioxo-1′,2′,3′,8′-tetrahydrospiro[cyclobutane-1,4′-pyrido[1,2-a]pyrazine]-7′-carboxamide hydrochloride] has an EC50 of 6.4 nM.

Same assay, conditions: Human immunodeficiency virus 1, NL43, MT4, 120 h, antiviral activity; MT-4 cells infected with HIV-1 NL4-3 (MOI 0.05), 5 days culture, Cell Titer-Glo luminescence; read-out: EC50
`CCN1C[C@]2(C[C@H](OCc3ccccc3)C2)n2cc(C(=O)NCc3ccc(F)cc3F)c(=O)c(O)c2C1=O` [Example S16, cis-3-(benzyloxy)-N-(2,4-difluorobenzyl)-2′-ethyl-9′-hydroxy-1′,8′-dioxo-1′,2′,3′,8′-tetrahydrospiro[cyclobutane-1,4′-pyrido[1,2-a]pyrazine]-7′-carboxamide hydrochloride] gave an EC50 of 7.8 nM.
`CCN1C[C@]2(C[C@@H](O)C2)n2cc(C(=O)NCc3ccc(F)cc3F)c(=O)c(O)c2C1=O` [Example S17, N-(2,4-difluorobenzyl)-2′-ethyl-trans-3,9′-dihydroxy-1′,8′-dioxo-1′,2′,3′,8′-tetrahydrospiro[cyclobutane-1,4′-pyrido[1,2-a]pyrazine]-7′-carboxamide hydrobromide] was tested, and the EC50 was 20 nM.
In the case of `CCN1C[C@]2(C[C@H](O)C2)n2cc(C(=O)NCc3ccc(F)cc3F)c(=O)c(O)c2C1=O` [Example S18, N-(2,4-difluorobenzyl)-2′-ethyl-cis-3,9′-dihydroxy-1′,8′-dioxo-1′,2′,3′,8′-tetrahydrospiro[cyclobutane-1,4′-pyrido[1,2-a]pyrazine]-7′-carboxamide hydrobromide], the EC50 is reported as 16 nM.
`CCN1C[C@]2(C[C@@H](OC)C2)n2cc(C(=O)NCc3ccc(F)cc3F)c(=O)c(O)c2C1=O` [Example S19, N-(2,4-difluorobenzyl)-2′-ethyl-9′-hydroxy-trans-3-methoxy-1′,8′-dioxo-1′,2′,3′,8′-tetrahydrospiro[cyclobutane-1,4′-pyrido[1,2-a]pyrazine]-7′-carboxamide hydrochloride] was tested, and the EC50 was 4.8 nM.
With `CCN1C[C@]2(C[C@H](OC)C2)n2cc(C(=O)NCc3ccc(F)cc3F)c(=O)c(O)c2C1=O` [Example S20, N-(2,4-difluorobenzyl)-2′-ethyl-9′-hydroxy-cis-3-methoxy-1′,8′-dioxo-1′,2′,3′,8′-tetrahydrospiro[cyclobutane-1,4′-pyrido[1,2-a]pyrazine]-7′-carboxamide hydrochloride] the EC50 was 3.5 nM.
Work on `CCO[C@H]1C[C@]2(CN(CC)C(=O)c3c(O)c(=O)c(C(=O)NCc4ccc(F)cc4F)cn32)C1` [Example S21, N-(2,4-difluorobenzyl)-cis-3-ethoxy-2′-ethyl-9′-hydroxy-1′,8′-dioxo-1′,2′,3′,8′-tetrahydrospiro[cyclobutane-1,4′-pyrido[1,2-a]pyrazine]-7′-carboxamide hydrochloride] yielded an EC50 of 3.8 nM.

Reference: patent US10087178B2, “Substituted spiropyrido[1,2-a]pyrazine derivative and medicinal use thereof as HIV integrase inhibitor” (priority 2012, dated 2018)
